Holding throughout (type): cell-based
One assay deals with MCF-7 ER^D538G. Description: CellTiter-Glo cell proliferation inhibition, MCF-7 ER^D538G. The conditions noted are these: Homo sapiens, MCF7, 144 h, MCF-7 ER^D538G (CTG), 6 days, starting concentration 10 μM; for inhibition at up to 10 µM: read-out: IH % max (maximum inhibition percentage). The text has this: (§1) 1. Cell line • (1) Breast cancer cell lines and their culture media: • MCF-7 (ATCC; Cat. No.: HTB-22), a Luminal A breast cancer cell; • TamR-MCF-7 (ATCC; Cat. No.: CRL-3435), a breast cancer cell; • MCF-7 ER^D538G: a Luminal A breast cancer cell obtained by constructing MCF-7 (ATCC; Cat. No.: HTB-22) using CRISPR-Cas9 gene editing technology; • MCF-7 ER^Y537S: a Luminal A breast cancer cell obtained by constructing MCF-7 (ATCC; Cat. No.: HTB-22) using CRISPR-Cas9 gene editing technology; • MDA-MB-231: (manufacturer: Nanjing CoBioer Biosciences Co., Ltd.), a triple-negative breast cancer cell; • MDA-MB-468: (manufacturer: Nanjing CoBioer Biosciences Co., Ltd.), a triple-negative breast cancer cell.
(§2) Herein, the culture medium of MCF-7, TamR-MCF-7, MCF-7 ER^D538G, and MCF-7 ER^Y537S was EMEM; • the culture medium of MDA-MB-231 and MDA-MB-468 was DMEM.
(§3) 2. Reagents • Culture medium EMEM (Gibco, 1964507) • Culture medium DMEM (Gibco, 12430-054) • Fetal bovine serum (Gibco, 10091148) • Penicillin-streptomycin double antibody (Gibco, S110JV) • DPBS (Gibco, 14190-144) • CellTiter-Glo® assay kit (Promega, G7573) • Trypsin (0.25%) (Gibco, 25200-056) • DMSO (Sigma, D2650)
(§4) 3. Instruments • Biosafety cabinet (AIRTECH, BSC-1300A II) • Automated cell counter (Life Technologies, countess II) • Multifunctional microplate reader (Biotek, H1FM) • Orbital shaker (Hangzhou Allsheng Instruments Co., Ltd., OS-100) • XLFIT 5.3 (Inforstack Shanghai Co., Ltd.)
(§5) For this test method, the following experiments were performed in a biosafety cabinet, with the specific steps as follows: • (1) Cells were inoculated in a 96-well plate. One day later, the previous culture medium was poured off, 5 mL of DPBS was added to wash the cells, and then DPBS was pipetted and discarded. An appropriate amount of trypsin was then added. The plate was digested in a 37° C., 5% CO2 cell incubator for about 2 to 5 minutes and then taken out. Anew corresponding culture medium was added, and pipetted up and down to resuspend the cells evenly. The cells were then counted using an automated cell counter. • (2) Each cell was inoculated in columns 1 to 11 of a 96-well plate (Corning, Cat. No.: 3610) at a density of 1,000 or 2,000 cells per well in 100 μL of culture medium, and 100 μL of the corresponding culture medium without cells was added to the wells in column 12. The plate was then placed in a 37° C., 5% CO2 incubator for 24 hours. • (3) The compound of the present disclosure and the control drug fulvestrant (Selleck; Cat. No.: S1191) were then 4-fold serially diluted to 10 dose points starting at 10 μM. 10 μL of the serially diluted compound was pipetted and added to 100 μL of cells in columns 1 to 10, and 10 μL of the corresponding culture medium containing 0.33 v % DMSO was added to both columns 11 and 12. The plate was incubated in a 37° C., 5% CO2 incubator for 6 days or 72 hours (Note: column 11 was used as a MAX well with cells but without compound; column 12 was used as a MIN well without cells […]). • (4) The cell viability detection reagent in the CellTiter-Glo® assay kit was then added to the 96-well plate at 50 μL per well according to the instructions, and shaken on an orbital shaker in the dark for 5 to 10 minutes. The cell viability was then measured using a multifunctional microplate reader. Finally, the inhibition of cell proliferation by the compound of the present disclosure was plotted by XLFIT software, and the IC50 value (half inhibitory concentration) and the IH % max (maximum inhibition percentage) of the compound of the present disclosure were calculated.

In the next assay the test system is MCF-7 ER^Y537S. The assay is described as follows: CellTiter-Glo cell proliferation inhibition, MCF-7 ER^Y537S. Particulars: Homo sapiens, MCF7, 144 h; MCF-7 ER^Y537S (CTG), 6 days, starting concentration 10 μM; read-out: IH % max (maximum inhibition percentage).
Excerpt: as §1, §2, §3, §4, §5
(In general: ATP-based viability assays read luminescence as a measure of living cells.)

A further assay has as its system TamR-MCF-7. The assay is described as follows: CellTiter-Glo cell proliferation inhibition, TamR-MCF-7. The conditions noted are these: 144 h; TamR-MCF-7 (CTG), 6 days, starting concentration 10 μM; read-out: IH % max (maximum inhibition percentage).
Excerpt: as §1, §2, §3, §4, §5

For a further assay, the system named is MCF-7. The assay is described as follows: CellTiter-Glo cell proliferation inhibition, MCF-7 (Effect Example 2). Particulars: Homo sapiens, MCF7, 144 h, MCF-7 (CTG), 6 days, starting concentration 10 μM; for inhibition at up to 10 µM: read-out: IH % max (maximum inhibition percentage).
Excerpt: as §1, §2, §3, §4, §5

A further assay has as its system MDA-MB-468. The assay is described as follows: CellTiter-Glo cell proliferation inhibition, MDA-MB-468. Particulars: Homo sapiens, 144 h; MDA-MB-468 (CTG), 6 days, starting concentration 10 μM; read-out: IH % max (maximum inhibition percentage).
Excerpt: as §1, §2, §3, §4, §5
Compounds D64 to D69 were tested for MDA-MB-231 (CTG) and MDA-MB-468 (CTG) with an incubation time of 72 hours in the incubator.

For orientation: inhibition means how much of the control response was suppressed. The term IC50 denotes the point on the concentration scale where inhibition reaches its midpoint. A high value points to weaker potency.

As to `CCN(CCCCCOCC(=O)Nc1cccc2c1CN(C1CCC(=O)NC1=O)C2=O)CCOc1ccc(Oc2c(-c3ccc(S(C)(=O)=O)cc3)ccc3cc(O)ccc23)cc1` (stereo not shown) [Compound D1, N-(2-(2,6-dioxopiperidin-3-yl)-1-oxoisoindolin-4-yl)-2-((5-(ethyl(2-(4-((6-hydroxy-2-(4-(methylsulfonyl)phenyl)naphthalen-1-yl)oxy)phenoxy)ethyl)amino)pentyl)oxy)acetamide], the inhibition at up to 10 µM in the assay with MCF-7 ER^D538G amounted to 79%; in the assay on MCF-7 ER^Y537S it was 73%; with TamR-MCF-7, 33%; in the assay on MCF-7 it was 30%.

Take `CS(=O)(=O)c1ccc(-c2ccc3cc(O)ccc3c2Oc2ccc(OCCOCCOCCOCCOc3cccc4c3CN(C3CCC(=O)NC3=O)C4=O)cc2)cc1` (stereo not shown) [Compound D14, 3-(4-(2-(2-(2-(2-(4-((6-hydroxy-2-(4-(methylsulfonyl)phenyl)naphthalen-1-yl)oxy)phenoxy)ethoxy)ethoxy)ethoxy)ethoxy)-1-oxoisoindolin-2-yl)piperidine-2,6-dione]: the inhibition at up to 10 µM was 40% in the assay on MCF-7 ER^D538G, 32% in the assay with MDA-MB-468 and 42% in the assay with MCF-7.

With `CS(=O)(=O)c1ccc(-c2ccc3cc(O)ccc3c2Oc2ccc(OCCOCCOCCN3CCN(c4ccc5c(c4)C(=O)N(C4CCC(=O)NC4=O)C5=O)CC3)cc2)cc1` (stereo not shown) [Compound D16, 2-(2,6-dioxopiperidin-3-yl)-5-(4-(2-(2-(2-(4-((6-hydroxy-2-(4-(methylsulfonyl)phenyl)naphthalen-1-yl)oxy)phenoxy)ethoxy)ethoxy)ethyl)piperazin-1-yl)isoindoline-1,3-dione], the inhibition at up to 10 µM in the assay with MCF-7 ER^D538G worked out at 47%; in the assay with TamR-MCF-7, 33%; in the assay with MCF-7, 51%.

Take `CS(=O)(=O)c1ccc(-c2ccc3cc(O)ccc3c2Oc2ccc(OCCOCCOCCOCCN3CCN(c4ccc5c(c4)CN(C4CCC(=O)NC4=O)C5=O)CC3)cc2)cc1` (stereo not shown) [Compound D27]: the inhibition at up to 10 µM with MCF-7 ER^D538G was determined as 69%; in the assay with TamR-MCF-7, 40%; with MCF-7, 60%. In the assay on MCF-7, the concentration for half-maximal inhibition (IC50) was found to be 222 nM.

For the compound `CS(=O)(=O)c1ccc(-c2ccc3cc(O)ccc3c2Oc2ccc(OCCN3CCN(c4ccc5c(c4)C(=O)N(C4CCC(=O)NC4=O)C5)CC3)cc2)cc1` (stereo not shown) [Compound D32, 3-(6-(4-(2-(4-((6-hydroxy-2-(4-(methylsulfonyl)phenyl)naphthalen-1-yl)oxy)phenoxy)ethyl)piperazin-1-yl)-1-oxoisoindolin-2-yl)piperidine-2,6-dione], the inhibition at up to 10 µM in the assay on MCF-7 ER^D538G turned out to be 38%; in the assay with MCF-7 ER^Y537S, 33%; with MCF-7 it was 39%.

On to `CCN(CCOCCOCCOCCOc1cccc2c1C(=O)N(C1CCC(=O)NC1=O)C2=O)CCOc1ccc(Oc2c(-c3ccc(S(C)(=O)=O)cc3)ccc3cc(O)ccc23)cc1` (stereo not shown) [Compound D36, 2-(2,6-dioxopiperidin-3-yl)-4-((3-ethyl-1-(4-((6-hydroxy-2-(4-(methylsulfonyl)phenyl)naphthalen-1-yl)oxy)phenoxy)-6,9,12-trioxa-3-azatetradecan-14-yl)oxy)isoindoline-1,3-dione], for which the inhibition at up to 10 µM in the assay on MCF-7 ER^D538G was found to be 62%; in the assay on MCF-7 ER^Y537S, 51%; in the assay on MDA-MB-468, 37%.

Turning to `CCN(CCOCCNc1ccc2c(c1)C(=O)N(C1CCC(=O)NC1=O)C2=O)CCOc1ccc(Oc2c(-c3ccc(S(C)(=O)=O)cc3)ccc3cc(O)ccc23)cc1` (stereo not shown) [Compound D38, […]], the inhibition at up to 10 µM with MCF-7 ER^D538G is 54%; in the assay on MCF-7 ER^Y537S, 47%.

In the case of `CCN(CCOCCOCCOc1cccc2c1C(=O)N(C1CCC(=O)NC1=O)C2=O)CCOc1ccc(Oc2c(-c3ccc(S(C)(=O)=O)cc3)ccc3cc(O)ccc23)cc1` (stereo not shown) [Compound D41], the values for the inhibition at up to 10 µM with MCF-7 ER^D538G, with MCF-7 ER^Y537S and in the assay on MDA-MB-468 were 65%, 50% and 31%, respectively.

Regarding `CCN(CCOCCOCCNc1cccc2c1C(=O)N(C1CCC(=O)NC1=O)C2=O)CCOc1ccc(Oc2c(-c3ccc(S(C)(=O)=O)cc3)ccc3cc(O)ccc23)cc1` (stereo not shown) [Compound D42], the half-maximal inhibitory concentration (IC50) in the assay on MCF-7 ER^D538G turned out to be 283 nM. For the same compound, the inhibition at up to 10 µM in the assay on MCF-7 ER^D538G was determined as 77%; with MCF-7 ER^Y537S, 46%; with MDA-MB-468 it was 39%; in the assay on MCF-7 it was 37%.

With `CCN(CCOCCOCCOCCOc1ccc2c(c1)C(=O)N(C1CCC(=O)NC1=O)C2=O)CCOc1ccc(Oc2c(-c3ccc(S(C)(=O)=O)cc3)ccc3cc(O)ccc23)cc1` (stereo not shown) [Compound D48, 2-(2,6-dioxopiperidin-3-yl)-5-((3-ethyl-1-(4-((6-hydroxy-2-(4-(methylsulfonyl)phenyl)naphthalen-1-yl)oxy)phenoxy)-6,9,12-trioxa-3-azatetradecan-14-yl)oxy)isoindoline-1,3-dione], the inhibition at up to 10 µM in the assay on MCF-7 ER^D538G amounted to 66%; with MCF-7 ER^Y537S it was 41%; in the assay on MCF-7 it was 32%.

Turning to `CCN(CCOCC(=O)N1CCN(c2cccc3c2CN(C2CCC(=O)NC2=O)C3=O)CC1)CCOc1ccc(Oc2c(-c3ccc(S(C)(=O)=O)cc3)ccc3cc(O)ccc23)cc1` (stereo not shown) [Compound D52], the inhibition at up to 10 µM worked out at 39.4% in the assay with TamR-MCF-7 and 52.6% in the assay on MCF-7.

Turning to `CCN(CCOc1ccc(Oc2c(-c3ccc(S(C)(=O)=O)cc3)ccc3cc(O)ccc23)cc1)CCN1CCN(c2ccc3c(c2)CN(C2CCC(=O)NC2=O)C3=O)CC1` (stereo not shown) [Compound D57, 3-(5-(4-(2-(ethyl(2-(4-((6-hydroxy-2-(4-(methylsulfonyl)phenyl)naphthalen-1-yl)oxy)phenoxy)ethyl)amino)ethyl)piperazin-1-yl)-1-oxoisoindolin-2-yl)piperidine-2,6-dione], the values for the inhibition at up to 10 µM with MCF-7 ER^D538G and with MCF-7 ER^Y537S were 51% and 46%, respectively.

As to `C[C@@H]1CN(CCOc2ccc(Oc3c(-c4ccc(S(C)(=O)=O)cc4)ccc4cc(O)ccc34)cc2)[C@@H](C)CN1CCN1CCN(c2ccc3c(c2)C(=O)N(C2CCC(=O)NC2=O)C3)CC1` (stereo partly drawn) [Compound D61, 3-(6-(4-(2-((2R,5S)-4-(2-(4-((6-hydroxy-2-(4-(methylsulfonyl)phenyl)naphthalen-1-yl)oxy)phenoxy)ethyl)-2,5-dimethylpiperazin-1-yl)ethyl)piperazin-1-yl)-1-oxoisoindolin-2-yl)piperidine-2,6-dione], the figures for the inhibition at up to 10 µM with TamR-MCF-7, in the assay on MDA-MB-468 and in the assay on MCF-7 were 40.2%, 32.7% and 45.6%, respectively.

The values above are taken from patent publication US20240131168A1, “NAPHTHALENE RING-CONTAINING COMPOUND, PHARMACEUTICAL COMPOSITION CONTAINING SAME, AND USE THEREOF” (JIANGSU YAHONG MEDITECH CO., LTD., priority 2021, published 2024).
